Experiment [1] deals with NS2B/NS3 protease of DEN2. As to conditions: cited from earlier work.
The target in experiment [2] is T1, JEV NS2B(H)-NS3pro (Japanese encephalitis virus, UniProt P32886, DEL1469-1493).
T1 construct: PCR-amplify the NS2B(H) region (amino acids 51–95 and 121–131); The N-terminal one-third (180 residues) of NS3 represents the protease domain NS3(pro); made in house; host or cells: E. coli (the text names both C41 and BL21), vector pTrcHisA
The experiment is described as follows: Enzymatic activity assay with fluorogenic peptide substrates (Michaelis-Menten kinetics). The note with it: JEV protease. The experiment is classed as biochemical.

In the next experiment the test system is NS2B/NS3 protease of YFV. The note with it: cited from earlier work.
Experiment [3] concerns JEV NS2B(H)-NS3pro. As to conditions: 25 mM NaCl; 100 µM Pyr-RTKR-amc, 0.5 µM enzyme, 50 mM Tris-HCl pH 9.5, 37°C.
Experiment [4] has as its system dengue virus NS3 protease. As to conditions: 100 mM NaCl; cited from earlier work.
The subject of another experiment is N2B-NS3 protease of WNV. As to conditions: cited from earlier work.
The next experiment concerns MVEV NS2B-NS3. The note with it: cited from earlier work.
For a further experiment, the target named is WNV NS3 protease. The note with it: cited from earlier work.
The target of experiment [5] is JEV NS2B(H)-NS3pro. The experiment is described as follows: Enzyme inhibition by aprotinin, Pyr-RTKR-amc substrate. Type of experiment: biochemical, Japanese encephalitis virus. As to conditions: 0.5 µM enzyme, 50 mM Tris-HCl pH 9.5, 20% glycerol, aprotinin 0-20 µM, 37°C 30 minutes pre-incubation, 10 µM Pyr-RTKR-amc, triplicate.
Another experiment concerns the target DEN2 NS3 protease. As to conditions: cited from earlier work.

Here are results for six compounds from publication PMC3352935, “Enzymatic Analysis of Recombinant Japanese Encephalitis Virus NS2B(H)-NS3pro Protease with Fluorogenic Model Peptide Substrates” (PLoS ONE, 2012).

Values joined by “and” are separate entries in the source; they are usually repeats but may differ in a detail not shown here. Identical values can stand only once. Like-named read-outs stand apart in the source and are kept apart here. Square brackets hold non-standard residues; d marks the D form. Peptide text beside a SMILES is read from it. * marks the point of attachment. AMC = Cc1cc(=O)oc2cc(N*)ccc12; Nle = CCCC[C@H](N)C(=O)O; Bz = O=C(c1ccccc1)*

The term IC50 denotes the concentration that inhibits the measured activity by half. A word on the Ki: it is a measure of affinity in units of concentration, obtained from inhibition or displacement.

With `Cc1cc(=O)oc2cc(NC(=O)[C@H](CCCNC(=N)N)NC(=O)[C@H](CCCNC(=N)N)NC(=O)CNC(=O)OC(C)(C)C)ccc12` [Boc-GRR-amc], in experiment [1], the K m is on record as 150 µM and the k cat was 0.13 s⁻¹. Further, at JEV NS2B(H)-NS3pro [2], the “fold higher K m than Boc-LRR-amc” value is given as 3 fold and the “fold higher catalytic efficiency than Boc-LRR-amc” value is “about 10 fold”. In addition, in the experiment with NS2B/NS3 protease of YFV, the K m is given as 142 µM and the k cat is 0.034 s⁻¹.
`CCCC[C@H](NC(=O)c1ccccc1)C(=O)N[C@@H](CCCCN)C(=O)N[C@@H](CCCNC(=N)N)C(=O)N[C@@H](CCCNC(=N)N)C(=O)Nc1ccc2c(C)cc(=O)oc2c1` [Bz-nKRR-amc] (Bz-[Nle]KRR-{AMC}): the “fold higher k cat/K m of benzoyl compared to acetyl group (Ac-nKRR-amc)” value on JEV NS2B(H)-NS3pro [2] is recorded as “approximately 1.4 fold”.
Turning to `[Cl-].[Na+]` [NaCl], the “inhibition of cleavage of Pyr-RTKR-amc” value in the experiment with JEV NS2B(H)-NS3pro [3] was “about 50%”. In experiment [4], the “inhibition of the dengue virus NS3 protease” value is 40–50%.
Take Abz-(R)4SAGnY-amide: the “k cat/K m” value in experiment [1] is 11087 M⁻¹ s⁻¹.
Pyr-RTKR-amc: the k cat in [1] was 0.02 s⁻¹ and 0.013 s⁻¹. Moreover, in the experiment on N2B-NS3 protease of WNV, the K m is given as 71 µM, the k cat is 6.3 s⁻¹ and the “k cat/K m” value is 88000 M⁻¹ s⁻¹.
For the compound aprotinin, the IC50 in the experiment on MVEV NS2B-NS3 is ~8 µM and 7.8 µM; on JEV NS2B(H)-NS3pro [5] it was 4.13 ± 0.17 µM. The Ki on WNV NS3 protease (WNV NS3 protease) was 162 nM; at WNV NS3 protease (non-cleavable form of WNV NS2B-NS3pro), 26 nM; on DEN2 NS3 protease, 26 nM.
